From patent US8802439B2, “Methods for enhancing infectivity of retroviruses” (priority 2009, dated 2014)

Columns and labels:
[1] = test system: HIV-1; assay: HIV-1 replication in human PBLs monitored by p24 ELISA; type: cell-based
Protocol: (E) Replication kinetics of wild-type HIV-1 in human PBLs is enhanced by Pin1 isomerase inhibitors. 2×10^6 PBLs from patient donors were challenged with HIV-1 in the presence (lighter squares, top) or absence (black circles, bottom) of 10 μM PiB, which was added again at day 3 to maintain drug pressure. Replication was monitored by sampling virus concentration in supernatants via p24 ELISA.
Cell Lines and PBMCs: The TZM-bl cell line was obtained through the NIH AIDS Research and Reference Reagent Program, Division of AIDS, NIAID, NIH: TZM-bl from Dr. John C. Kappes, Dr. Xiaoyun Wu and Tranzyme Inc. The sMAGI cell line was obtained through the AIDS Research and Reference Reagent Program, Division of AIDS, NIAID, NIH: CMMT-CD4-LTR-β-Gal (sMAGI) from Dr. Julie Overbaugh. African green kidney BS-C-1 CCL-26, African green kidney CV-1 CCL-70, African green kidney Vero CCL-81, owl kidney OMK(637-69) CRL-1556 and 293T cell lines were obtained from ATCC. To generate PBMCs, human blood from normal healthy donors (General Clinical Research Center, TSR1) was fractionated via gradient centrifugation through histopaque-1077 (Sigma-Aldrich). Peripheral blood lymphocytes (PBLs) were cultured in RPMI supplemented with 20% FBS, 20 U ml^−1 IL-2.
Infection assays for retrovirus: Single-round infections: CD4^+ TZM-bl 100,000 cells/well/mL were seeded onto 24-well plates 24 hours prior to infection. These cells were infected in quadruplicate to 24-well plates. Infectivity was scored using an enzymatic galactosidase activity assay. Specifically, infected TZM-bl cells were washed and lysed, and 20 μl of lysate was transferred to a 96-well plate for detecting β-galactosidase activity. 100 μl of reaction buffer Galacton-Star substrate (Applied Biosystems, Bedford, Mass.), diluted 1:50, was added to 20 μl of lysate, and the light emission was measured over 1 second in a microplate luminometer after 30 minutes incubation. For human PBMC infections, cells were exposed to 10 ng of wild-type virus for 6 hours, washed, and split into two flasks: one with 10 μM PiB added on day 0 and 3, and one without PiB. Replication was monitored by p24 ELISA. For measuring infectivity of GFP-virus, 50,000 TZMb1, sMAGI, OMK, Vero, BSC-1 and CV-1 cells/well/mL were seeded onto 6-well plates respectively 24 hours prior to infection. Viruses were used to infect in duplicate wells, incubated for 48 hours, washed with PBS, trypsinized, fixed in 1% formaldehyde and subsequently analyzed by fluorescence-activated cell sorting (FACS) for percentage cells infected. […]
PBLs from human donors were challenged with HIV-1 in the presence (squares) or absence (circles) of 10 μM PiB. Replication was monitored by sampling virus concentration in supernatants via p24 ELISA. […]

[2] = test system: HIV-1; assay: Single-round infectivity on TZM-bl cells of HIV-1 produced in Pin1-inhibited 293T cells (Galacton-Star galactosidase assay); type: cell-based; conditions: for boost of infectivity: TZM-bl target cells
Description: Viral inocula from transfections above were normalized to equal virion particle number via p24 ELISA and used to infect target CD4^+ HeLa cells (1×10^5 TZM-bl). Infectivity was scored using the Galacton-Star enzymatic galactosidase activity assay, and infectivity quantified by relative […] units (R.F.U).
Plasmids: Laboratory-adapted provirus NL4.3, and the CypA-independent NL4.3 CAi2 were kindly provided by Akio Adachi (Department of Virology, Institute of Health Biosciences, The University of Tokushima Graduate School, JAPAN). Mutant R9G89V was a gift from P. Gallay (TSR1) as were NL4.3-GFP and SIV-GFP (originally Dana Gabuzda, Dana Farber Cancer Institute). NL4.3 A92E was kindly provided by W. Phares (Genetics Unit, Novartis Forschungsinstitut, Vienna, Austria). R9Δgp160 plasmid clone was kindly provided by C. Aiken (Vanderbilt Medical Center). VSV-G (CMV-VSV-G) was kindly provided by D. Trono (École Polytechnique Fédérale de Lausanne). Both bMLV-GFP and nMLV-GFP in the form of pCIG3-N, pCIG3-B as well as pCNCG were kindly provided by J. Stoye (National Institute for Medical Research, UK). Isomerase mutant Pin1 (pFLAG-Pin1R68,69A) and WW-domain mutant Pin1 (pFLAG-Pin1 W34A) were constructed by site-directed mutagenesis. Pseudotyping experiments were performed using DNA constructs encoding the VSV-G generously provided by D. Trono. Human Pin1 was cloned into pFLAG (Sigma-Aldrich) making pFLAG-Pin1. Viruses were produced by transfection of 293T cells using either GeneJuice (Novagen) or calcium phosphate. […] All viruses were harvested 24-48 hours post-transfection and filtered (0.2-μM filter, Steriflip Millipore). HIV-1 viruses were normalized by p24 ELISA (Alliance HIV-1 p24 Antigen ELISA Kit, Perkin Elmer), and/or were normalized via the EnzChek® Reverse Transcriptase Assay Kit (E-22064) (Molecular Probes).
Infection assays for retrovirus: Single-round infections: CD4^+ TZM-bl 100,000 cells/well/mL were seeded onto 24-well plates 24 hours prior to infection. These cells were infected in quadruplicate to 24-well plates. Infectivity was scored using an enzymatic galactosidase activity assay. Specifically, infected TZM-bl cells were washed and lysed, and 20 μl of lysate was transferred to a 96-well plate for detecting β-galactosidase activity. 100 μl of reaction buffer Galacton-Star substrate (Applied Biosystems, Bedford, Mass.), diluted 1:50, was added to 20 μl of lysate, and the light emission was measured over 1 second in a microplate luminometer after 30 minutes incubation. For human PBMC infections, cells were exposed to 10 ng of wild-type virus for 6 hours, washed, and split into two flasks: one with 10 μM PiB added on day 0 and 3, and one without PiB. Replication was monitored by p24 ELISA. For measuring infectivity of GFP-virus, 50,000 TZMb1, sMAGI, OMK, Vero, BSC-1 and CV-1 cells/well/mL were seeded onto 6-well plates respectively 24 hours prior to infection. Viruses were used to infect in duplicate wells, incubated for 48 hours, washed with PBS, trypsinized, fixed in 1% formaldehyde and subsequently analyzed by fluorescence-activated cell sorting (FACS) for percentage cells infected.
To examine a potential role for Pin1 in HIV-1 replication we used two inhibitors of Pin1: juglone and PiB. […] 293T cells were transfected with a proviral construct encoding wild-type HIV-1 in the presence or absence of PiB or juglone.

[3] = produced in 293T with 10 μm PiB, TZMb1

CCOC(=O)CN1C(=O)c2ccc3c4c(ccc(c24)C1=O)C(=O)N(CC(=O)OCC)C3=O [PiB, diethyl-1,3,6,8-tetrahydro-1,3,6,8-tetraoxobenzo[lmn][3,8]phenanthroline-2,7-diacetate]
replication kinetics of wild-type HIV-1 in human PBLs ([1]; 10 μM PiB, added again at day 3): enhanced | elevated replication kinetics versus untreated ([1]; human PBLs, 10 μM PiB, after six days, average of two donors): seven fold | increase in infectivity versus untreated ([1]; human PBLs, day 5): seven-fold | p24 in supernatant at peak replicative differential ([1]; human PBLs, day 5, untreated 0.2 μg/ml): 1.4 µg/mL | HIV-1 infectivity after treatment of target cells ([2]; TZM-bl pre-incubated with 0, 2, 10 μM PiB for 24 hours before VSV-G pseudotyped virus, read 48 hours post-infection): no effect on HIV-1 infectivity | infectivity of VSV-G pseudotyped HIV-1 lacking gp160 (NL4.3 Δenv) ([2]; produced in 293T in the presence of 2 μM or 10 μM PiB, TZM-bl): enhanced | boost of wild-type NL4.3 virus in the FIG. 3H experiment [2, 3]: rather mild boost | infectivity of CypA-deficient R9G89V mutant HIV-1 [2, 3]: dramatically boosted | boost of infectivity ([2]; viruses produced in 293T in the presence of 2.0 μM inhibitor): 2 fold | boost of infectivity ([2]; viruses produced in 293T in the presence of 10 μM PiB): 8 fold
